What was measured:
[1] = molecular target: μ1 Receptor (opioid analgesia receptor) (Homo sapiens, UniProt P35372); type: binding
Description: compound which displaces 50% of a labelled competitive ligand from […]

[2] = In vivo antinociceptive activity (A.U.C.), animal pain model; settings: area under the time effect curve
Description: *A.U.C. = area under the time effect curve.

[3] = versus morphine; R. Osborne et al., The Lancet, 1988, 828; cited from earlier work

Sequence of μ1 Receptor (opioid analgesia receptor) (P35372 whole entry): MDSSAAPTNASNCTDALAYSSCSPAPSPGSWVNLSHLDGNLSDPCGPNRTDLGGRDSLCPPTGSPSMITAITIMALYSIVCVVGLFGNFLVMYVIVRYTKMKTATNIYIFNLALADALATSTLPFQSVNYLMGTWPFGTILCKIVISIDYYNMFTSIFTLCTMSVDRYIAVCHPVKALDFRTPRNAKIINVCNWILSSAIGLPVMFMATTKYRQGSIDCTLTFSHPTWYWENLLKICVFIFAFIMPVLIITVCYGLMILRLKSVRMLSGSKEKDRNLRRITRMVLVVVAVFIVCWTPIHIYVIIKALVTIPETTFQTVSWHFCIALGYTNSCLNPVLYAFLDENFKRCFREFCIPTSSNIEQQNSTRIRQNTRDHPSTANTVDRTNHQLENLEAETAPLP

Row | SMILES | binding affinity to the receptor (μ1), in words [1] | In vivo antinociceptive (A.U.C.) ([2]; 1 mg) | In vivo antinociceptive (A.U.C.) ([2]; 2 mg) | In vivo antinociceptive (A.U.C.) ([2]; 4 mg) | analgesic power compared with morphine [3] | In vivo antinociceptive (A.U.C.) ([2]; 8 mg)
1 | CN1CC[C@]23c4c5ccc(O)c4O[C@H]2[C@@H](O[C@@H]2O[C@H](C(=O)O)[C@@H](O)[C@H](O)[C@H]2O)CC[C@H]3[C@H]1C5 [Compound 6, 1-(7,8-dihydromorphin-6-yl)-β-D-glucopyranosiduronic acid] | greatest binding affinity to the relevant receptor (μ1) | 277.4 | 720.4 | 753.3 |  | 
2 | CN1CC[C@]23c4c5ccc(O)c4O[C@H]2[C@@H](O[C@@H]2O[C@H](C(=O)O)[C@@H](O)[C@H](O)[C@H]2O)C=C[C@H]3[C@H]1C5 [Compound 2, morphine-6-glucuronide] |  |  | 209.6 | 618.1 | more powerful analgesic than morphine itself | 
3 | O=C(O)[C@H]1O[C@@H](O[C@H]2C=C[C@H]3[C@H]4Cc5ccc(O)c6c5[C@@]3(CCN4)[C@H]2O6)[C@H](O)[C@@H](O)[C@@H]1O [Compound 5] |  |  | 65.6 | 564.8 |  | 837.9
4 | CN1CC[C@]23c4c5ccc(O)c4O[C@H]2[C@@H](O)C=C[C@H]3[C@H]1C5 [Compound 1, morphine] |  | 197.3 | 241.4 | 738.3 |  | 
5 | CN1CC[C@]23c4c5ccc(O)c4O[C@H]2[C@@H](O[C@@H]2OC(C(=O)O)=C[C@H](O)[C@H]2O)C=C[C@H]3[C@H]1C5 [Compound 3] |  |  | 205.0 | 168.5 |  | 175.5
6 | CN1CC[C@]23c4c5ccc(O)c4O[C@H]2[C@@H](O[C@@H]2O[C@H](C(=O)O)[C@@H](O)[C@H]2O)C=C[C@H]3[C@H]1C5 [Compound 4] |  |  |  | 238.1 |  | 68.3

Source: US5977326A, “Process for making morphine-6-glucuronide or substituted morphine-6-glucuronide” (priority 1991, dated 1999)
